Data reported in patent publication US9682995B2, “Amino-substituted isothiazoles” (BAYER PHARMA AKTIENGESELLSCHAFT, priority 2013, dated 2017).

Columns and labels:
Assay in all cases: Kinase Profiling (KINOMEscan)
Type in all cases: binding
[1] = molecular target: 456 kinases (of these 395 non-mutant kinases) (Homo sapiens, UniProt Q9C098); details: DCAMKL3; 10 μM
[2] = molecular target: 456 kinases (of these 395 non-mutant kinases) (Homo sapiens, UniProt Q5S007, G2019S); details: LRRK2(G2019S); 10 μM
[3] = molecular target: 456 kinases (of these 395 non-mutant kinases) (Homo sapiens, UniProt O00750); details: PIK3C2B; 10 μM
[4] = molecular target: 456 kinases (of these 395 non-mutant kinases) (Homo sapiens, UniProt Q7KZI7); details: MARK2; 10 μM
[5] = molecular target: 456 kinases (of these 395 non-mutant kinases) (Homo sapiens, UniProt P42336, I800L); details: PIK3CA(I800L); 10 μM
[6] = molecular target: 456 kinases (of these 395 non-mutant kinases) (Homo sapiens, UniProt Q96NX5); details: CAMK1G; 10 μM
[7] = molecular target: 456 kinases (of these 395 non-mutant kinases) (Homo sapiens, UniProt O95835); details: LATS1; 10 μM
[8] = molecular target: 456 kinases (of these 395 non-mutant kinases) (Homo sapiens, UniProt P04049); details: RAF1; 10 μM
[9] = molecular target: 456 kinases (of these 395 non-mutant kinases) (Homo sapiens, UniProt Q9UM73, C1156Y); details: ALK(C1156Y); 10 μM
[10] = molecular target: 456 kinases (of these 395 non-mutant kinases) (Homo sapiens, UniProt Q13188); details: MST2; 10 μM
[11] = molecular target: 456 kinases (of these 395 non-mutant kinases) (Homo sapiens, UniProt Q6XUX3); details: RIPK5; 10 μM
[12] = molecular target: 456 kinases (of these 395 non-mutant kinases) (Homo sapiens, UniProt Q8WXR4); details: MYO3B; 10 μM
[13] = molecular target: 456 kinases (of these 395 non-mutant kinases) (Homo sapiens, UniProt O60285); details: ARK5; 10 μM
[14] = molecular target: 456 kinases (of these 395 non-mutant kinases) (Homo sapiens, UniProt O15530); details: PDPK1; 10 μM
[15] = molecular target: 456 kinases (of these 395 non-mutant kinases) (Homo sapiens, UniProt Q92630); details: DYRK2; 10 μM
[16] = molecular target: 456 kinases (of these 395 non-mutant kinases) (Homo sapiens, UniProt Q16816); details: PHKG1; 10 μM
[17] = molecular target: 456 kinases (of these 395 non-mutant kinases) (Homo sapiens, UniProt P00519, F317I); details: 10 μM
[18] = molecular target: 456 kinases (of these 395 non-mutant kinases) (Homo sapiens, UniProt Q92918); details: HPK1; 10 μM
[19] = molecular target: 456 kinases (of these 395 non-mutant kinases) (Homo sapiens, UniProt Q15208); details: NDR1; 10 μM
[20] = molecular target: 456 kinases (of these 395 non-mutant kinases) (Homo sapiens, UniProt Q9UHD2); details: TBK1; 10 μM
[21] = molecular target: 456 kinases (of these 395 non-mutant kinases) (Homo sapiens, UniProt P51955); details: NEK2; 10 μM
[22] = molecular target: 456 kinases (of these 395 non-mutant kinases) (Homo sapiens, UniProt Q04912); details: MST1R; 10 μM
[23] = molecular target: 456 kinases (of these 395 non-mutant kinases) (Homo sapiens, UniProt Q9Y2U5); details: MAP3K2; 10 μM
[24] = molecular target: 456 kinases (of these 395 non-mutant kinases) (Homo sapiens, UniProt P23458); details: 10 μM
[25] = molecular target: 456 kinases (of these 395 non-mutant kinases) (Homo sapiens, UniProt P00519); details: 10 μM
[26] = molecular target: 456 kinases (of these 395 non-mutant kinases) (Homo sapiens, UniProt Q8IY84); details: NIM1; 10 μM
[27] = molecular target: 456 kinases (of these 395 non-mutant kinases) (Homo sapiens, UniProt P78362); details: SRPK2; 10 μM
[28] = molecular target: 456 kinases (of these 395 non-mutant kinases) (Homo sapiens, UniProt P15056); details: BRAF; 10 μM
[29] = molecular target: 456 kinases (of these 395 non-mutant kinases) (Homo sapiens, UniProt Q9BXA7); details: TSSK1B; 10 μM
[30] = molecular target: 456 kinases (of these 395 non-mutant kinases) (Homo sapiens, UniProt O94921); details: PFTK1; 10 μM
[31] = molecular target: 456 kinases (of these 395 non-mutant kinases) (Homo sapiens, UniProt P23443); details: S6K1; 10 μM

Sequence of 456 kinases (of these 395 non-mutant kinases) (Homo sapiens, UniProt Q9UM73, C1156Y) (Q9UM73 19-1620 C1156Y limits assumed): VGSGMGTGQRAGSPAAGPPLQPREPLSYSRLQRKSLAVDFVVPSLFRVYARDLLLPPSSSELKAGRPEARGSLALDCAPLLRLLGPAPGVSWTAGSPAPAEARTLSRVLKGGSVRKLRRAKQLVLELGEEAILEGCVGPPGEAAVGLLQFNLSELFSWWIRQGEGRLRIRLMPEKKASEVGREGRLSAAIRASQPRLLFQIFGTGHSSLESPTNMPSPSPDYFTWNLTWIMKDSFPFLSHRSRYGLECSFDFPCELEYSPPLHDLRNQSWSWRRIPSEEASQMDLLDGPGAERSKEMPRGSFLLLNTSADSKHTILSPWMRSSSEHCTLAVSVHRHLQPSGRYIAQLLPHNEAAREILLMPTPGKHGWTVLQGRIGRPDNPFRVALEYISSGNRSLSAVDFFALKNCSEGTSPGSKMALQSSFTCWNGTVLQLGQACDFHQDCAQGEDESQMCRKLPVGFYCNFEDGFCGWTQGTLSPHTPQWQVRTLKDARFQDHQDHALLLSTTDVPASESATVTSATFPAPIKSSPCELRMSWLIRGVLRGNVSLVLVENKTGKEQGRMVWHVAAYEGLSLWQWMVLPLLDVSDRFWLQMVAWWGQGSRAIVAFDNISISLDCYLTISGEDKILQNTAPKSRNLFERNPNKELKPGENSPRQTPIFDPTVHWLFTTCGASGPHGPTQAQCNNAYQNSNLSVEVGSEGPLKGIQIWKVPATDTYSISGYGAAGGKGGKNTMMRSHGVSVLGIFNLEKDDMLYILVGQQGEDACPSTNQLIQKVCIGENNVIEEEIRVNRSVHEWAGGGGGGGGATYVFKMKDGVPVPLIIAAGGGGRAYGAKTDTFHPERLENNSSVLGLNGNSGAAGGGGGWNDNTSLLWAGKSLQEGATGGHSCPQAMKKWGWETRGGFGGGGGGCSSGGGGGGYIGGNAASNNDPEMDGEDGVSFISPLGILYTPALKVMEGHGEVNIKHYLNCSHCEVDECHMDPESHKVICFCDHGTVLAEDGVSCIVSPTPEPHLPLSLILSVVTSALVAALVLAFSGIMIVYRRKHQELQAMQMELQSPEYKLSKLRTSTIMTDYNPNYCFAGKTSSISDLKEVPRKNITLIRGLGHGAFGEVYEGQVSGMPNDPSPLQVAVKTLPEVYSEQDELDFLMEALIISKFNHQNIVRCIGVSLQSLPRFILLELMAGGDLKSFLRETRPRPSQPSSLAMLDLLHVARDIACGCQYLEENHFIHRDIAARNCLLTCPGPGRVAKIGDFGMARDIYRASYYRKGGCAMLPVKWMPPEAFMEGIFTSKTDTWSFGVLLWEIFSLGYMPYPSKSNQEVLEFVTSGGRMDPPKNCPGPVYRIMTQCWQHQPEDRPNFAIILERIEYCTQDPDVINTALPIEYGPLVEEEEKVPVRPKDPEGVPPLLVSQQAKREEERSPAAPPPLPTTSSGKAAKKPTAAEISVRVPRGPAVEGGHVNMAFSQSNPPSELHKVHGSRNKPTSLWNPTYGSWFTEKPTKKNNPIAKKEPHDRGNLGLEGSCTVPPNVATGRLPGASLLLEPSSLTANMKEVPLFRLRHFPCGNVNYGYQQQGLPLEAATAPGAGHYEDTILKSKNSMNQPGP
Sequence of 456 kinases (of these 395 non-mutant kinases) (Homo sapiens, UniProt P15056) (P15056 2-766 limits assumed, change not shown): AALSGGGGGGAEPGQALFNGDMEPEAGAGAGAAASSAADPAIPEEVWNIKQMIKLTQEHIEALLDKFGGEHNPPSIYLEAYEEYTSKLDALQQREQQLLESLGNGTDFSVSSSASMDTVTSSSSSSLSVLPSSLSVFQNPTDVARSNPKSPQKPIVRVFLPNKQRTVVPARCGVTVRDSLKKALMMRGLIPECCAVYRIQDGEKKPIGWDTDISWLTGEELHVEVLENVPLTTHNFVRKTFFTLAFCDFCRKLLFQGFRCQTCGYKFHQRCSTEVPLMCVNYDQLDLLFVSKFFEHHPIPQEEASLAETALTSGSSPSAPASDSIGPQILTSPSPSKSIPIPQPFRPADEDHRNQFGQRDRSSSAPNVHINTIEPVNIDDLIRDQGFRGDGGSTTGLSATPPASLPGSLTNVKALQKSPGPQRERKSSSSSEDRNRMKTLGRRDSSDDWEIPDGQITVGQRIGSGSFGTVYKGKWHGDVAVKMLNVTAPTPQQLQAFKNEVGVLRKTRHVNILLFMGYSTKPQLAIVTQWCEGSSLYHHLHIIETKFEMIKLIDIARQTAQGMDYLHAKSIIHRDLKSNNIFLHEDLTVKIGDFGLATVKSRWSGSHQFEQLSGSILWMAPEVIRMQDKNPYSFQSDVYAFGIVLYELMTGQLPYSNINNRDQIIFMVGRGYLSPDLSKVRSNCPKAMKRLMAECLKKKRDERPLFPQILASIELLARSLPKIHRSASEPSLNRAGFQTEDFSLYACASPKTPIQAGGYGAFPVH
Sequence of 456 kinases (of these 395 non-mutant kinases) (Homo sapiens, UniProt Q15208) (Q15208 2-465 limits assumed, change not shown): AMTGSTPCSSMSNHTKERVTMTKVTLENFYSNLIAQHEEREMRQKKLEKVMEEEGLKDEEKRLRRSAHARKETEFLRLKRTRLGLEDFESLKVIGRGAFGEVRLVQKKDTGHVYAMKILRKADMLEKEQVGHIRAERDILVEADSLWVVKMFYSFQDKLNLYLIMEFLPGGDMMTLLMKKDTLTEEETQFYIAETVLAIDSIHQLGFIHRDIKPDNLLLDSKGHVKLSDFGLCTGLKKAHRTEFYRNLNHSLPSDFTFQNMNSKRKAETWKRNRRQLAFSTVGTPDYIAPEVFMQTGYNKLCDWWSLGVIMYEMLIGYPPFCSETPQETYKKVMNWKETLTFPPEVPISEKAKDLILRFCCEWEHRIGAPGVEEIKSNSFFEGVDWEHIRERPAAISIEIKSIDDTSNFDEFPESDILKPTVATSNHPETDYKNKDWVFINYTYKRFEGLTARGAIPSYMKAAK

In the case of `CCc1ccccc1NC(=O)c1c(C)nsc1Nc1cnc2cc(F)ccc2n1` [Example 20, N-(2-Ethylphenyl)-5-[(6-fluoroquinoxalin-2-yl)amino]-3-methyl-1,2-thiazole-4-carboxamide], the “% Ctrl @ 10 μM” value [1] is reported as 100 % Ctrl, the “% Ctrl @ 10 μM” value [2] is reported as 92 % Ctrl and the “% Ctrl @ 10 μM” value [3] is reported as 100 % Ctrl. For the same molecule, the “% Ctrl @ 10 μM” value [4] was 83 % Ctrl, the “% Ctrl @ 10 μM” value [5] was 93 % Ctrl and the “% Ctrl @ 10 μM” value [6] was 86 % Ctrl. The “% Ctrl @ 10 μM” value [7] was 100 % Ctrl, the “% Ctrl @ 10 μM” value [8] was 100 % Ctrl and the “% Ctrl @ 10 μM” value [9] was 100 % Ctrl. For the same molecule, the “% Ctrl @ 10 μM” value [10] was 100 % Ctrl, the “% Ctrl @ 10 μM” value [11] was 100 % Ctrl and the “% Ctrl @ 10 μM” value [12] was 100 % Ctrl. The “% Ctrl @ 10 μM” value [13] was 85 % Ctrl, the “% Ctrl @ 10 μM” value [14] was 86 % Ctrl and the “% Ctrl @ 10 μM” value [15] was 96 % Ctrl. The “% Ctrl @ 10 μM” value [16] was 70 % Ctrl, the “% Ctrl @ 10 μM” value ([17]; ABL1(F317I)-nonphosphorylated) was 100 % Ctrl and the “% Ctrl @ 10 μM” value ([17]; ABL1(F317I)-phosphorylated) was 86 % Ctrl. For the same molecule, the “% Ctrl @ 10 μM” value [18] was 60 % Ctrl, the “% Ctrl @ 10 μM” value [19] was 100 % Ctrl and the “% Ctrl @ 10 μM” value [20] was 91 % Ctrl. The “% Ctrl @ 10 μM” value [21] was 100 % Ctrl, the “% Ctrl @ 10 μM” value [22] was 100 % Ctrl and the “% Ctrl @ 10 μM” value [23] was 100 % Ctrl. For the same molecule, the “% Ctrl @ 10 μM” value ([24]; JAK1(JH1domain-catalytic)) was 100 % Ctrl, the “% Ctrl @ 10 μM” value ([24]; JAK1(JH2domain-pseudokinase)) was 71 % Ctrl and the “% Ctrl @ 10 μM” value ([25]; ABL1-nonphosphorylated) was 100 % Ctrl. For the same molecule, the “% Ctrl @ 10 μM” value ([25]; ABL1-phosphorylated) was 100 % Ctrl, the “% Ctrl @ 10 μM” value [26] was 77 % Ctrl and the “% Ctrl @ 10 μM” value [27] was 100 % Ctrl. For the same molecule, the “% Ctrl @ 10 μM” value [28] was 82 % Ctrl, the “% Ctrl @ 10 μM” value [29] was 100 % Ctrl and the “% Ctrl @ 10 μM” value [30] was 93 % Ctrl. For the same molecule, the “% Ctrl @ 10 μM” value [31] was 100 % Ctrl.
